Test results reported in ChEMBL document CHEMBL1140580, “Synthesis and characterization of trans-4-(4-chlorophenyl)pyrrolidine-3-carboxamides of piperazinecyclohexanes as ligands for the melanocortin-4 receptor” (Bioorg Med Chem Lett, 2007).

Tests used:
Melanocortin receptor 3 = Melanocortin receptor 3 (Homo sapiens, UniProt P41968); test: Binding affinity to MC3R
Melanocortin receptor 4 [1] = target: T1, Melanocortin receptor 4 (Homo sapiens, UniProt P32245); test: Displacement of […]NDPMSH from human MC4R expressed in HEK293 cells; type: cell-based
T1 sequence (P32245 whole entry): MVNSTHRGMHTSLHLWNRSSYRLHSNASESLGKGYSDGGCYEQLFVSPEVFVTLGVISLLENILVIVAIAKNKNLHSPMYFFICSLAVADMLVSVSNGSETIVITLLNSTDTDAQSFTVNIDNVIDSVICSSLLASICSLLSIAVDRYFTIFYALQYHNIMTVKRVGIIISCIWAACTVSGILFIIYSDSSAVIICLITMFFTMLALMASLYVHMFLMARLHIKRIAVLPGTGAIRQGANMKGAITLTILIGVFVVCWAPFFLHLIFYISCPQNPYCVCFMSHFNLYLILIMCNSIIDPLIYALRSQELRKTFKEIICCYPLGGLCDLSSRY

Melanocortin receptor 4 [2] = target: T1, Melanocortin receptor 4; test: Agonist activity at MC4R assessed as stimulation of cAMP release relative to alphaMSH; type: functional
Melanocortin receptor 4 [3] = target: Melanocortin receptor 4 (Mus musculus, UniProt P56450); test: Binding affinity to mouse MC4R
Sequence of Melanocortin receptor 4 (Mus musculus, UniProt P56450) (P56450 whole entry): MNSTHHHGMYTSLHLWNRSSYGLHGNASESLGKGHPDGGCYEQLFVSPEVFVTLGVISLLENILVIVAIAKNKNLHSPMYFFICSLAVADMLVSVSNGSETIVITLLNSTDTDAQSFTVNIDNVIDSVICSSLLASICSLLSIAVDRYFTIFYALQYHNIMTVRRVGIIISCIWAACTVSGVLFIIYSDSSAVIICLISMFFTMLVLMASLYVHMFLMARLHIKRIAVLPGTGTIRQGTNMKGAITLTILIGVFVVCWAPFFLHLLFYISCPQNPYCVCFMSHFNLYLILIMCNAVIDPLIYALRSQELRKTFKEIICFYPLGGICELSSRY

Melanocortin receptor 4 [4] = target: T1, Melanocortin receptor 4; test: Agonist activity at MC4R assessed as stimulation of cAMP release; type: functional
[5] = target: Melanocyte-stimulating hormone receptor (Homo sapiens, UniProt Q01726); test: Binding affinity to MC1R
Sequence of Melanocyte-stimulating hormone receptor (Q01726 whole entry): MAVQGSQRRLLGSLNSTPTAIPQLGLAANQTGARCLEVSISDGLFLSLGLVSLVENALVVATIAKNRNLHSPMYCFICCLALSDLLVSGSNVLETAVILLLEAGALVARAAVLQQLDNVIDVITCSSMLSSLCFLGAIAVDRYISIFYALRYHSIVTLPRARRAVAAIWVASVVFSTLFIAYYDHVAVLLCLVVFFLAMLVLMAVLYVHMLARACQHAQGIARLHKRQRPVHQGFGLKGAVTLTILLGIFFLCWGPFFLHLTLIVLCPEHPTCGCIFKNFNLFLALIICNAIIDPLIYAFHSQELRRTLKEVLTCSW

Melanocortin receptor 5 = Melanocortin receptor 5 (Homo sapiens, UniProt P33032); test: Binding affinity to MC5R
Sequence of Melanocortin receptor 5 (P33032 whole entry, looked up): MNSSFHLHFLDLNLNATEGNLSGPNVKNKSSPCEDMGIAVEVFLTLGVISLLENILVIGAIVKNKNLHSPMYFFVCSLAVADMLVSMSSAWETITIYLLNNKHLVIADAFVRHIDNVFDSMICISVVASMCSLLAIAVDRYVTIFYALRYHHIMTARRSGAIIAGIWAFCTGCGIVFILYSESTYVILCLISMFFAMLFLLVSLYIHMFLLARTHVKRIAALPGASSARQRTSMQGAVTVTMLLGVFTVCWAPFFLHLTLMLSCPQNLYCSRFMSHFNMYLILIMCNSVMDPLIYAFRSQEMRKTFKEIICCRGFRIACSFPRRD

Melanocortin receptor 4 [6] = target: T1, Melanocortin receptor 4; test: Antagonist activity at MC4R assessed as inhibition of alpha-MSH-stimulated cAMP release; type: functional

Sequence of Melanocortin receptor 3 (P41968 whole entry): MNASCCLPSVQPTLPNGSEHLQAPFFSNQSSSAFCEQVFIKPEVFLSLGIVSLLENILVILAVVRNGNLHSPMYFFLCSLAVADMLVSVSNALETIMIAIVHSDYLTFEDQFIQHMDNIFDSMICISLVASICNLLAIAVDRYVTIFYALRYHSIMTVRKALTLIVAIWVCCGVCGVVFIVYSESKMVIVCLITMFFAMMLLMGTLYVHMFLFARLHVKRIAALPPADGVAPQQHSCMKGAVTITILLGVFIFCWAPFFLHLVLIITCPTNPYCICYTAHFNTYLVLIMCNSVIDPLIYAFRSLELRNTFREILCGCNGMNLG

SMILES: COc1ccc(CNCC2(N3CCN(C(=O)[C@H]4CN(C(C)C)C[C@@H]4c4ccc(Cl)cc4)CC3)CCCCC2)cc1F
- Ki (Melanocortin receptor 3): 760 nM
- Ki (Melanocortin receptor 4 [1]): 0.5 nM
- Intrinsic activity (Melanocortin receptor 4 [2]): 10%
- Ki (Melanocortin receptor 4 [3]): 0.6 nM
- EC50 (Melanocortin receptor 4 [4]): 170 nM
- Ki [5]: 3900 nM
- Ki (Melanocortin receptor 5): 540 nM
- IC50 (Melanocortin receptor 4 [6]): 48 nM

SMILES: CC(C)N1C[C@H](C(=O)N2CCN(C3(CNCc4ccncc4)CCCCC3)CC2)[C@@H](c2ccc(Cl)cc2)C1
- Ki (Melanocortin receptor 4 [1]): 27 nM
- Intrinsic activity (Melanocortin receptor 4 [2]): 27%
- EC50 (Melanocortin receptor 4 [4]): 780 nM
- IC50 (Melanocortin receptor 4 [6]): 410 nM

SMILES: O=C([C@H]1CN(C2CCCCC2)C[C@@H]1c1ccc(Cl)cc1)N1CCN(C2(CNCc3ccccc3)CCCCC2)CC1
- Ki (Melanocortin receptor 4 [1]): 5.5 nM
- Intrinsic activity (Melanocortin receptor 4 [2]): 16%
- EC50 (Melanocortin receptor 4 [4]): 1500 nM
- IC50 (Melanocortin receptor 4 [6]): 130 nM

SMILES: O=C([C@H]1CN(C2CCCC2)C[C@@H]1c1ccc(Cl)cc1)N1CCN(C2(CNCc3ccccc3)CCCCC2)CC1
- Ki (Melanocortin receptor 4 [1]): 17 nM
- Intrinsic activity (Melanocortin receptor 4 [2]): 33%
- EC50 (Melanocortin receptor 4 [4]): 1800 nM

SMILES: CC(C)N1C[C@H](C(=O)N2CCN(C3(CNCc4ccco4)CCCCC3)CC2)[C@@H](c2ccc(Cl)cc2)C1
- Ki (Melanocortin receptor 4 [1]): 38 nM
- Intrinsic activity (Melanocortin receptor 4 [2]): 32%
- EC50 (Melanocortin receptor 4 [4]): 570 nM

SMILES: CC(C)N1C[C@H](C(=O)N2CCN(C3(CNCc4ccccn4)CCCCC3)CC2)[C@@H](c2ccc(Cl)cc2)C1
- Ki (Melanocortin receptor 4 [1]): 76 nM
- Intrinsic activity (Melanocortin receptor 4 [2]): 34%
- EC50 (Melanocortin receptor 4 [4]): 1200 nM

SMILES: COc1cccc(CNCC2(N3CCN(C(=O)[C@H]4CN(C(C)C)C[C@@H]4c4ccc(Cl)cc4)CC3)CCCCC2)c1
- Ki (Melanocortin receptor 4 [1]): 30 nM
- Intrinsic activity (Melanocortin receptor 4 [2]): 39%
- EC50 (Melanocortin receptor 4 [4]): 1200 nM

SMILES: CC(=O)Nc1ccc(CNCC2(N3CCN(C(=O)[C@H]4CN(C(C)C)C[C@@H]4c4ccc(Cl)cc4)CC3)CCCCC2)cc1
- Ki (Melanocortin receptor 4 [1]): 29 nM
- Intrinsic activity (Melanocortin receptor 4 [2]): 27%
- EC50 (Melanocortin receptor 4 [4]): 190 nM

SMILES: CC(C)N1C[C@H](C(=O)N2CCN(C3(CNCc4nccs4)CCCCC3)CC2)[C@@H](c2ccc(Cl)cc2)C1
- Ki (Melanocortin receptor 4 [1]): 130 nM
- Intrinsic activity (Melanocortin receptor 4 [2]): 72%
- EC50 (Melanocortin receptor 4 [4]): 740 nM

SMILES: CC(C)N1C[C@H](C(=O)N2CCN(C3(CNCc4ccc(F)cc4)CCCCC3)CC2)[C@@H](c2ccc(Cl)cc2)C1
- Ki (Melanocortin receptor 4 [1]): 44 nM
- Intrinsic activity (Melanocortin receptor 4 [2]): 61%
- EC50 (Melanocortin receptor 4 [4]): 6600 nM

SMILES: CC(C)N1C[C@H](C(=O)N2CCN(C3(CNCc4ccc(Cl)cc4)CCCCC3)CC2)[C@@H](c2ccc(Cl)cc2)C1
- Ki (Melanocortin receptor 4 [1]): 90 nM
- Intrinsic activity (Melanocortin receptor 4 [2]): 29%
- EC50 (Melanocortin receptor 4 [4]): 4200 nM
